For the assay, the system named is M. mycetomatis genome strain MM55. Put plainly: CLSI M38-A2 based in vitro susceptibility screening (XTT or resazurin), growth at fixed concentration. Type of assay: cell-based, Madurella mycetomatis. To be noted: Madurella mycetomatis; for Percent fungal survival at 100 µM: read-out: Percentage survival at 100um, 100 uM A (second replicate column).
The mark [1] stands for this setting: mean of replicates, read-out: Percentage survival at 25um, 25 uM mean.
Setting [2] is: replicate A, read-out: Percentage survival at 25um, 25 um A.
The mark [3] stands for this setting: replicate B, read-out: Percentage survival at 25um, 25 uM B.
[4] abbreviates: replicate C, read-out: Percentage survival at 25um, 25 uM C.
[5] abbreviates: mean of replicates, read-out: Percentage survival at 100um, 100 uM mean.
[6] abbreviates: replicate 1, read-out: Percentage survival at 100um, 100 uM A.
Setting [7] is: replicate 2, read-out: Percentage survival at 100um, 100 uM A.
Where [8] appears, read: replicate 3, read-out: Percentage survival at 100um, 100 uM A.
The mark [9] stands for this setting: mean of three replicates, read-out: Percentage survival at 25um, 25 uM mean.
[10] abbreviates: mean of three replicates, read-out: Percentage survival at 100um, 100 uM mean.
Setting [11] is: replicate 1, read-out: Percentage survival at 100um, 100 uM A (first replicate column).
The mark [12] stands for this setting: replicate 3, read-out: Percentage survival at 100um, 100 uM A (third replicate column).
[13] abbreviates: mean, read-out: Percentage survival at 25um, 25 uM mean.
[14] abbreviates: mean, read-out: Percentage survival at 100um, 100 uM mean.
The mark [15] stands for this setting: replicate (first column), read-out: Percentage survival at 100um, 100 uM A.
[16] abbreviates: replicate (second column), read-out: Percentage survival at 100um, 100 uM A.
Where [17] appears, read: replicate (third column), read-out: Percentage survival at 100um, 100 uM A.
The mark [18] stands for this setting: first replicate column, read-out: Percentage survival at 100um, 100 uM A.
Setting [19] is: second replicate column, read-out: Percentage survival at 100um, 100 uM A.
[20] abbreviates: third replicate column, read-out: Percentage survival at 100um, 100 uM A.

Read-outs that look alike come from different tables or passages of the source.

Take `CCc1ccc(C2CC(C(F)(F)F)n3ncc(C(=O)NCc4ccc(OC)cc4)c3N2)cc1` (centres unmarked) [MMV831201]: the activity at 25 µM reads like this: under setting [1], 64.1%; under setting [2], 65%; under setting [3], 56.7%; under setting [4], 70.7%. The activity at 100 µM under setting [5] is 67.5%, the activity at 100 µM under setting [6] is 62%, the activity at 100 µM under setting [7] was 63% and the activity at 100 µM under setting [8] is 77.5%.

On to `C[Si]1(C)CCN(Cc2cc(-c3ccc(Cl)cc3)n(-c3ccc(Cl)cc3)n2)CC1` [MMV1580843], for which the activity at 25 µM runs as follows: (mean of replicates, MM55, read-out: Percentage survival at 25um, 25 uM mean) 67.7%; (replicate A, MM55, read-out: Percentage survival at 25um, 25 um A) 56.5%; (replicate B, MM55, read-out: Percentage survival at 25um, 25 uM B) 86.3%; (replicate C, MM55, read-out: Percentage survival at 25um, 25 uM C) 60.2%. Further, the activity at 100 µM is, setting by setting: (mean of replicates, MM55, read-out: Percentage survival at 100um, 100 uM mean) 57.4%; (replicate 1, MM55, read-out: Percentage survival at 100um, 100 uM A) 52%; (replicate 2, MM55, read-out: Percentage survival at 100um, 100 uM A) 70.7%; (replicate 3, MM55, read-out: Percentage survival at 100um, 100 uM A) 49.4%.

Regarding `CC(=O)Nc1cc(NS(=O)(=O)c2ccc(Cl)cc2)cc2c(Cl)n[nH]c12` [MMV1579779], the activity at 25 µM was 83.8% under setting [1], 80.2% under setting [2], 89.2% under setting [3] and 82.1% under setting [4]. The activity at 100 µM runs as follows: under setting [5], 82.2%; under setting [6], 78.5%; under setting [7], 74.6%; under setting [8], 93.4%.

Turning to `CCc1nc2ccc(Cl)cn2c1C(=O)NCc1ccc(N2CCC(c3ccc(OC(F)(F)F)cc3)CC2)cc1` [MMV687696], the activity at 25 µM under setting [9] came to 93.6%, the activity at 25 µM under setting [2] was determined as 95%, the activity at 25 µM under setting [3] amounted to 93.8% and the activity at 25 µM under setting [4] was 91.9%. The activity at 100 µM by setting is: under setting [10], 84.8%; under setting [11], 87.8%; under setting [12], 80.3%. For the same molecule, for the setting “replicate 2”, the Percent fungal survival at 100 µM stood at 86.4%.

`CC(=N)N1CC[C@H](SC2=C(C(=O)O)N3C(=O)[C@@H]([C@@H](C)O)[C@H]3C2)C1` [MMV1582382]: the activity at 25 µM under setting [1] stood at 78.4%, the activity at 25 µM under setting [2] amounted to 77.3%, the activity at 25 µM under setting [3] is 85.2% and the activity at 25 µM under setting [4] is 72.8%. Besides, the activity at 100 µM worked out at 83.2% under setting [5], 76.4% under setting [6], 82.9% under setting [7] and 90.3% under setting [8].

With `N[C@@H]1CN(c2c(F)cc3c(=O)c(C(=O)O)cn([C@@H]4C[C@@H]4F)c3c2Cl)CC12CC2` [MMV1579850], the activity at 25 µM under setting [9] amounted to 85.6%, the activity at 25 µM under setting [2] is 82.4%, the activity at 25 µM under setting [3] was 85.7% and the activity at 25 µM under setting [4] was 88.6%. Moreover, the activity at 100 µM under setting [10] is 83.7%, the activity at 100 µM under setting [11] is 86.1% and the activity at 100 µM under setting [12] stood at 82%. Also, the Percent fungal survival at 100 µM (replicate 2) is 82.9%.

For the molecule `O=C1c2cccc3cccc(c23)C(=O)N1CC1CO1` (centres unmarked) [MMV1634360], the activity at 25 µM under setting [13] was 61%, the activity at 25 µM under setting [2] is 65.4%, the activity at 25 µM under setting [3] came out at 62.1% and the activity at 25 µM under setting [4] stood at 55.4%. In addition, the activity at 100 µM is 2.87% under setting [14], -2.26% under setting [15], 3.27% under setting [16] and 7.61% under setting [17].

On to `CC(C)(C)c1cc(C(=O)/C(C#N)=N/Nc2cccc(Cl)c2)no1` [MMV1578571], for which the activity at 25 µM is, setting by setting: under setting [1], 61%; under setting [2], 95.6%; under setting [3], 56.3%; under setting [4], 31.2%. The activity at 100 µM runs as follows: under setting [5], 6.1%; under setting [6], 4.87%; under setting [7], 4.92%; under setting [8], 8.51%.

Consider `CC(C)Oc1cccc(NC(=O)c2ccccc2C(F)(F)F)c1` [MMV1009286], for which the activity at 25 µM turned out to be 61% under setting [13], 87.9% under setting [2], 37.1% under setting [3] and 58% under setting [4]. For the same molecule, the activity at 100 µM turned out to be 39% under setting [14], 26.3% under setting [15], 52.4% under setting [16] and 38.1% under setting [17].

Turning to `O=c1cc(NCCCN[C@@H]2CCOc3c(Br)cc(Br)cc32)[nH]c2ccsc12` [MMV1578884], the activity at 25 µM runs as follows: under setting [1], 96.9%; under setting [2], 100%; under setting [3], 95.5%; under setting [4], 94.6%. Besides, the activity at 100 µM under setting [5] was determined as 88.3%, the activity at 100 µM under setting [6] stood at 93%, the activity at 100 µM under setting [7] came to 86.8% and the activity at 100 µM under setting [8] is 85.3%.

For the molecule `CO/N=C(\C(=O)N[C@@H]1C(=O)N2C(C(=O)OCOC(=O)C(C)(C)C)=C(/C=C\c3scnc3C)CS[C@H]12)c1csc(N)n1` [MMV002560], the activity at 25 µM worked out at 117% under setting [1], 84.9% under setting [2], 78.8% under setting [3] and 186% under setting [4]. The activity at 100 µM reads like this: under setting [5], 77.5%; under setting [6], 72.7%; under setting [7], 83.7%; under setting [8], 76%.

Consider `Nc1nc(O)ncc1F` [MMV004508], for which the activity at 25 µM worked out at 84% under setting [13], 87.6% under setting [2], 87.9% under setting [3] and 76.6% under setting [4]. Also, the activity at 100 µM is 89.4% under setting [14], 93.5% under setting [15], 81.4% under setting [16] and 93.4% under setting [17].

As for `Fc1ccc(-c2nc(-c3c[nH]c4ccc(Br)cc34)[nH]c2-c2ccc(F)cc2)cc1` [MMV1593537], the activity at 25 µM (mean of three, M. mycetomatis MM55, read-out: Percentage survival at 25um, 25 uM mean) stood at 61.4%; the activity at 25 µM (replicate A, M. mycetomatis MM55, read-out: Percentage survival at 25um, 25 um A) amounted to 38%; the activity at 25 µM (replicate B, M. mycetomatis MM55, read-out: Percentage survival at 25um, 25 uM B) stood at 20.2%; the activity at 25 µM (replicate C, M. mycetomatis MM55, read-out: Percentage survival at 25um, 25 uM C) turned out to be 126%. For the same molecule, the activity at 100 µM runs as follows: (mean of three, M. mycetomatis MM55, read-out: Percentage survival at 100um, 100 uM mean) 3.84%; (replicate 1, M. mycetomatis MM55, read-out: Percentage survival at 100um, 100 uM A (first replicate column)) 4.18%; (replicate 3, M. mycetomatis MM55, read-out: Percentage survival at 100um, 100 uM A (third replicate column)) 5.52%. Further, the Percent fungal survival at 100 µM (replicate 2, M. mycetomatis MM55) amounted to 1.82%.

Regarding `COc1cc(NC(=O)CN2C(=O)NC(c3ccccc3)(c3ccccc3)C2=O)cc(OC)c1` [MMV1578572], the activity at 25 µM was 72% under setting [13], 95.2% under setting [2], 47.1% under setting [3] and 73.6% under setting [4]. For the same molecule, the activity at 100 µM reads like this: under setting [14], 79.3%; under setting [15], 83.4%; under setting [16], 65.2%; under setting [17], 89.3%.

In the case of `NC(=O)c1nccn([C@@H]2O[C@H](CO)[C@@H](O)[C@H]2O)c1=O` [MMV1782104], the activity at 25 µM by setting is: under setting [9], 99.8%; under setting [2], 102%; under setting [3], 107%; under setting [4], 90.3%. For the same molecule, the activity at 100 µM is 97.1% under setting [18], 86.1% under setting [10], 97.7% under setting [19] and 63.4% under setting [20].

As for `O=C(NCCN1CCCCC1)c1cccc(C(F)(F)F)c1` [MMV1633964], the activity at 25 µM under setting [9] was determined as 86.8%, the activity at 25 µM under setting [2] came out at 87.8%, the activity at 25 µM under setting [3] amounted to 90.2% and the activity at 25 µM under setting [4] was found to be 82.3%. In addition, the activity at 100 µM was found to be 77.6% under setting [18], 81.1% under setting [10], 90.5% under setting [19] and 75.1% under setting [20].

These data come from publication PMC8815882, “Screening the pandemic response box identified benzimidazole carbamates, Olorofim and ravuconazole as promising drug candidates for the treatment of eumycetoma” (PLoS Neglected Tropical Diseases, 2022).
